Assays:
SEM B-ALL cell line = assay: Cytotoxicity assay, SEM; type: cell-based; details: Homo sapiens, 96 h, four days in culture, Alamar blue assay or automated microscopy, ± SD, three experiments
Description: (§1) Cell lines were cultured in Opti-MEM medium (Gibco, Life Technologies Corporation, Burlington, Ontario) supplemented with 10% heat inactivated fetal bovine serum (FBS) (Gibco), 100 units/ml penicillin and 100 units/ml streptomycin (Gibco) and 0.05 mM 2-mercaptoethanol (Sigma-Aldrich, Oakville, Ontario) in T25 flasks (Nalge Nunc, Rochester, New York) or T75 flasks (Corning Incorporated, Corning, New York). All cell cultures were maintained at 37°C in a humidified incubator with 5% CO2.
(§2) For cytotoxicity profiling of Aurora kinase inhibitors against leukemia cell lines, inhibitors or vehicle control (DMSO, Sigma-Aldrich) were diluted in 100 µl of Opti-MEM per well in 96 well plates (Grenier Bio-One, Monroe, North Carolina) in triplicate at final concentrations ranging from 1×10^−6 to 10 µM. 1×10^4 cells per well were seeded and plates were incubated for 4 days. Following incubation for 4 days, cell survival was quantified by Alamar blue assay (Invitrogen) or automated inverted microscopy using the Celigo Cell Cytometer (Cyntellect, San Diego, California). […] During this period of incubation, the absorbance at 570–620 nm was measured (Opsys MR Plate Reader, Dynex Technologies, Chantilly, Virginia) at various time points, depending on the cell line or sample. Percent survival was calculated by comparing the absorbance ratio of the test well to the control well multiplied by 100%, as indicated in the following formula: […]
(§3) For automated inverted microscopy, the number of cells in each well was determined using the direct cell counting application as described previously. Briefly, following adjustment of image acquisition settings for bright-field imaging, the wells containing cells and appropriate dilutions of inhibitors were individually scanned. Based on these images, analysis parameters, including intensity threshold and cell diameter, were modified for optimal inclusion of viable cells in treated and control wells. These parameters were applied for subsequent replicates involving the same leukemia cell line or sample. The percent survival was then calculated as a ratio of the number of cells in treated wells to the number of cells in control wells multiplied by 100%. Given that Aurora kinase inhibitors interfere with cytokinesis, cells that are committed to death may still contain enlarging but intact cytoplasmic content before the eventual loss of cytoplasmic membrane integrity. The accuracy of Alamar blue assay may be, in theory, affected by the timing of these events.

MV4-11 AML cell line = assay: Cytotoxicity assay, MV4-11; type: cell-based, human; details: AML cell line MV4-11, four days in culture, Alamar blue assay or automated microscopy, ± SD, three experiments
Description: as §1, §2, §3

phospho-Aurora-A/B/C = assay: Western blot of Aurora kinase phosphorylation in leukemia cell lines; type: cell-based, human
Description: (§4) Following desired experimental conditions, cells were harvested and centrifuged at 1200 rpm at 4°C for 5 minutes. After removal of supernatant, cells were washed in cold PBS. Following an additional centrifugation step, supernatant was removed and the pellet was re-suspended in radioimmunoprecipitation assay (RIPA) buffer (50 mM Tris-HCl (pH 8), 150 mM NaCl, 1% NP-40, 0.5% sodium deoxycholate; 0.1% sodium dodecyl sulphate (SDS)) supplemented with 1% phosphatase inhibitor (Sigma-Aldrich), 1% protease inhibitor (Sigma-Aldrich) and 1% sodium orthovanadate (Alfa Aesar, Ward Hill, Massachusetts). Samples were transferred to Eppendorf tubes, left on ice for 10 minutes, vortexed and then centrifuged at 14 000 rpm for 10 minutes.
To begin, the protein content of the lysates was measured using the Bicinchoninic Acid (BCA) Protein Assay Kit (Pierce, Rockford, Illinois), which included a protein standard curve generated with bovine serum albumin. Appropriate volumes of samples and loading buffer (50 mM Tris-HCl (pH 6.8), 2% SDS, 10% glycerol, 1% β-mercaptoethanol, 12.5 mM EDTA, 0.02% bromophenol blue) were mixed, ensuring that equal amounts of protein were loaded (30 µg of protein per well). Samples were then resolved on SDS-PAGE using various percentages of acrylamide gels (8%–12%), depending on the proteins of interest. SDS-PAGE was run in SDS running buffer (25 mM Tris, 192 mM glycine, 0.1% SDS) and then transferred to nitrocellulose membranes in transfer buffer (48 mM Tris, 39 mM glycine, 20% (v/v) methanol) at 100 volts for 2 hours at 4°C. Immunoblots were then blocked in 5% skim milk in tris-buffered saline with 0.1% Tween-20 (TBS-T; 50 mM Tris-HCl, pH 7.5, 150 mM NaCl, 0.1% (v/v) Tween-20 (Sigma-Aldrich)) for 1 to 2 hours. Immunoblots were then incubated with selected primary antibodies diluted in TBS-T with 0.1% gelatin (Bio-Rad, Mississauga, Ontario) and 0.05% sodium azide (Sigma-Aldrich) overnight. Primary antibodies included: Aurora-A (Cell Signalling, Danvers, Massachusetts; 1∶1000), Aurora-B (Cell Signalling, 1∶1000), phospho-Aurora-A/B/C (Cell Signalling, 1∶1000), caspase 7 (Cell Signalling, 1∶1000), PARP (Cell Signalling, 1∶2000) and β-Actin (Sigma-Aldrich, 1∶10000). Following washes with TBT-T 4 times for 8 to 10 minutes, immunoblots were incubated with appropriate secondary antibodies conjugated to horseradish peroxidise (Sigma-Aldrich) diluted in TBS-T plus 5% skim milk at a ratio of 1∶5000 for 2 hours at room temperature. After an additional round of washes in TBS-T, immunoblots were exposed to combined enhanced chemiluminescence (ECL) reagents (Reagent 1: 100 mM Tris-HCl (pH 8.5), 5.4 mM hydrogen peroxide; Reagent 2: 100 mM Tris-HCl (pH 8.5), 2.5 mM luminol, 0.4 mM p-coumaric acid) for 1 minute and developed by exposure to X-ray film (Christie InnoMed, Montreal, Quebec).
Leukemia cells were plated in a 6 well plate (BD Biosciences) at a concentration of 1×10^6 cells per well in a volume of 500 µl of Opti-MEM supplemented with FBS and antibiotics. Next, Silencer Select Negative Control Number 1 siRNA (Invitrogen), Aurora kinase A siRNA (s196, Invitrogen) and Aurora kinase B siRNA (s17611, Invitrogen) were diluted in individual tubes (BD Biosciences) to a final concentration of 30 nM in 500 µl Opti-MEM without supplements. Following, HiPerfect Transfection Reagent (Qiagen, Toronto, Ontario) was added to the diluted siRNA at a ratio of 3∶100 and the samples were left at room temperature for 10 minutes to allow for the formation of transfection complexes. The transfection complexes were then added to the cells at a volume of 500 µl per well and the plates were placed in the incubator for 6 hours. After incubation, 1.4 ml of Opti-MEM plus supplements were added to each well, for a total volume 2.4 ml per well. The cells were returned to the incubator for an additional 48 or 72 hours and then processed for immunoblotting.

[1] = tested on: cleavage of PARP and caspase 7; assay: Western blot of apoptotic markers in leukemia cell lines; type: cell-based, human; details: 2, 4, 6, 12 and 24 hours, C1, SEM, KOPN8, TIB-202
Description: as §4
To begin, the protein content of the lysates was measured using the Bicinchoninic Acid (BCA) Protein Assay Kit (Pierce, Rockford, Illinois), which included a protein standard curve generated with bovine serum albumin. Appropriate volumes of samples and loading buffer (50 mM Tris-HCl (pH 6.8), 2% SDS, 10% glycerol, 1% β-mercaptoethanol, 12.5 mM EDTA, 0.02% bromophenol blue) were mixed, ensuring that equal amounts of protein were loaded (30 µg of protein per well). Samples were then resolved on SDS-PAGE using various percentages of acrylamide gels (8%–12%), depending on the proteins of interest. SDS-PAGE was run in SDS running buffer (25 mM Tris, 192 mM glycine, 0.1% SDS) and then transferred to nitrocellulose membranes in transfer buffer (48 mM Tris, 39 mM glycine, 20% (v/v) methanol) at 100 volts for 2 hours at 4°C. Immunoblots were then blocked in 5% skim milk in tris-buffered saline with 0.1% Tween-20 (TBS-T; 50 mM Tris-HCl, pH 7.5, 150 mM NaCl, 0.1% (v/v) Tween-20 (Sigma-Aldrich)) for 1 to 2 hours. Immunoblots were then incubated with selected primary antibodies diluted in TBS-T with 0.1% gelatin (Bio-Rad, Mississauga, Ontario) and 0.05% sodium azide (Sigma-Aldrich) overnight. […]

`O=C(Nc1c[nH]nc1-c1nc2ccc(CN3CCOCC3)cc2[nH]1)NC1CC1` [AT9283] was tested, and the IC50 (SEM B-ALL cell line) was 40 ± 20 nM and the IC50 (MV4-11 AML cell line; Homo sapiens, 96 h) was 3 ± 2 nM.

In the case of `CCN1CCN(C(=O)Cc2ccc(Nc3ncc(F)c(Nc4ccc(C(=O)Nc5ccccc5Cl)cc4)n3)cc2)CC1` [Aurora A Inhibitor I], the IC50 (MV4-11 AML cell line) is reported as 400 ± 100 nM, the “phosphorylation of Aurora kinases, inhibitor alone, TIB-202” value (phospho-Aurora-A/B/C; 1 µM for 12 h, TIB-202, Lanes 3 and 6 of Figure 8) is reported as “promoted dephosphorylation of Aurora-A and increased phosphorylation of Aurora-B and Aurora-C” and the “phosphorylation of Aurora-A, time course, C1” value (phospho-Aurora-A/B/C; 1 µM, 2, 4, 6, 12 and 24 hours, C1) is reported as “slight increase in phosphorylation of Aurora-A at 12 and 24 hours”. For the same molecule, the “phosphorylation of Aurora-B and Aurora-C, time course” value (phospho-Aurora-A/B/C; 1 µM, 2, 4, 6, 12 and 24 hours, C1, SEM, KOPN8, TIB-202) was “gradual increase in phosphorylation of Aurora-B and Aurora-C compared to vehicle control starting at 2 hours for SEM and KOPN8, 4 hours for TIB-202 and 6 hours for C1”, the “phosphorylation of Aurora-A, time course, SEM, KOPN8, TIB-202” value (phospho-Aurora-A/B/C; 1 µM, 2, 4, 6, 12 and 24 hours, SEM, KOPN8, TIB-202) was “initial decrease, followed by a subsequent increase in phosphorylation of Aurora-A was apparent, starting at 6 hours for SEM and at 4 hours for KOPN8 and TIB-202” and the “phosphorylation of Aurora kinases, inhibitor after Aurora-B siRNA” value (phospho-Aurora-A/B/C; Aurora-B siRNA 60 hours, then 1 µM for 12 h, SEM and TIB-202, Lane 5) was “decrease in phosphorylation of all three isoforms compared to treatment with Aurora A Inhibitor I alone or Aurora-B siRNA alone”. The “cleavage of caspase 7, time course” value ([1]; 1 µM) was “cleavage of caspase 7 beginning at 4 hours for TIB-202 and at 12 hours for the remaining cell lines”.

For `CCS(=O)(=O)Nc1ccc2c(c1)/C(=C(/Nc1ccc(CN3CCCCC3)cc1)c1ccccc1)C(=O)N2` [Hesperadin], the IC50 (SEM B-ALL cell line) was 1 ± 0.5 nM, the IC50 (MV4-11 AML cell line; Homo sapiens, 96 h) was 0.005 nM and the “phosphorylation of Aurora-B, inhibitor alone” value (phospho-Aurora-A/B/C; 0.1 µM for 12 hours, SEM and TIB-202, Lanes 3 and 6 of Figure 7) was “promoted dephosphorylation of Aurora-B”. The “phosphorylation of Aurora-A, time course” value (phospho-Aurora-A/B/C; 0.1 µM, 2, 4, 6, 12 and 24 hours, C1, SEM, KOPN8, TIB-202) was “remained phosphorylated in all of the cell lines throughout the duration of treatment, with a slight increase in activity at 12 and 24 hours”, the “phosphorylation of Aurora-B and Aurora-C, time course, C1 and TIB-202” value (phospho-Aurora-A/B/C; 0.1 µM, 2, 4, 6, 12 and 24 hours, C1 and TIB-202) was “Dephosphorylation of Aurora-B and Aurora-C was initiated at 2 hours in C1 and TIB-202 and maintained for the duration of the treatment” and the “phosphorylation of Aurora-B, time course, SEM and KOPN8” value (phospho-Aurora-A/B/C; 0.1 µM, 2, 4, 6, 12 and 24 hours, SEM and KOPN8) was “dephosphorylation of Aurora-B was initiated at 2 hours in SEM and KOPN8 and maintained until 24 hours”. The “phosphorylation of Aurora-B and Aurora-C, inhibitor after Aurora-A siRNA” value (phospho-Aurora-A/B/C; Aurora-A siRNA 60 hours, then 0.1 µM for 12 hours, SEM and TIB-202, Lane 5) was “decrease in phosphorylation of Aurora-B and Aurora-C compared to silencing of Aurora-A alone”, the “cleavage of PARP, time course” value ([1]; 0.1 µM) was “cleavage of PARP in all four cell lines starting at 12 hours” and the “cleavage of caspase 7, time course” value ([1]; 0.1 µM) was “cleavage of caspase 7 beginning at 4 hours for C1 and at 12 hours for the remaining cell lines”.

From PMC4105567, “Aurora Kinases as Druggable Targets in Pediatric Leukemia: Heterogeneity in Target Modulation Activities and Cytotoxicity by Diverse Novel Therapeutic Agents” (PLoS ONE, 2014)
